Laboratory results as given in patent publication US12163169B2, “Inducible chimeric cytokine receptors” (Allogene Therapeutics, Inc., priority 2018, dated 2024).
Values belong to the molecule of their own block, whether it stands above or below them. Ends that are not written are not given here.

Tests used:
Format in all cases: cell-based
[1] = test system: STAT5; assay: HEK293T Stat5 reporter assay of FKBP switches lacking JAK-binding motifs or cytotail tyrosines (Example 3B); details: 5 hours post-treatment, compared to positive control FKBP switch TpoR(478-582)/IL7R(316-459), FIG. 5B
Description: To identify components essential for the inducible chimeric cytokine receptor to signal, we generated FKBP switches that lacked either the JAK-binding domains or tyrosine residues in the cytotail domain. Specifically, either one or both JAK-binding motifs from TpoR(478-582) were replaced with glycine linkers, or all or a single (i.e. Y449) tyrosine residue(s) in the IL7R(316-459) cytotail was mutated to phenylalanine. The term “switch” as used in the Example section refers to the inducible chimeric cytokine receptor. For example, an “FKBP switch” as used herein is an inducible chimeric cytokine receptor comprising FKBP as the dimerization domain.
A HEK293T cell reporter assay was used to test how each of these domains affected cytokine signaling. Briefly, 20,000 HEK293T cells were plated into each well of a poly-L-lysine-coated 96-well flat-bottom plate and allowed to adhere overnight. […] 24 hours after transfection, cells were either left untreated, or treated with the indicated concentrations of AP1903 (Apex Bio) diluted in serum-free media, and Stat reporter activity was determined 5 hours post-treatment using the Dual-Glo Luciferase Assay System (Promega). […]

[2] = test system: CAR T cells; assay: Cytokine release (MSD assay) at the end of the 4-day cytotoxicity assay (Example 16B)
Description: (§1) To test whether different cytotail outputs influenced the effector function of CAR T cells, we performed a 4-day in vitro cytotoxicity assay. Briefly, 30,000 U87KO-EGFRvIII-nucRFP target cells were seeded and allowed to attach in 96-well plates with black walls and flat clear bottom in 50 uL RPMI containing 10% FBS (Hyclone), non-essential amino acids, sodium pyruvate and 20-25 mM HEPES. U87KO-EGFRvIII is a kind gift from Cellectis SA (Paris, France). U87KO-EGFRvIII was derived from the parental cell line, U87MG (ATCC), by first knocking out endogenous wildtype EGFR using Transcription Activator-Like Effector Nucleases (TALEN), and then stably overexpressing full-length human EGFRvIII via lentiviral transduction. To facilitate target cell imaging via the IncuCyte Live Cell Analysis Imaging System, U87KO-EGFRvIII-nucRFP target cells were derived from U87KO-EGFRvIII by a second lentiviral transduction with IncuCyte NucLight Red Lentivirus Reagent (Sartorius). EGFRvIII CAR (2173 scFv) T cells bearing an FKBP switch with the respective cytotails were thawed and added to plated target cells at an Effector:Target (E:T) ratio of 1:8. As a comparison, CAR T cells coexpressing FKBP-MyD88-CD40 were included. […] The number of live target cells at each timepoint was determined by enumerating the number of live nuclearRFP+ cells using the Incucyte Live Cell Analysis Imaging System. […]

[3] = test system: CAR T cells; assay: Cytokine release (MSD assay) on Day 5 of the AP1903-driven growth assay (Example 16B); details: 500 ng/ml of AP1903; FIGS. 42A-42B
Description: To test whether different cytotail outputs influenced the memory differentiation and long-term survival of CAR T cells, we performed an AP1903-driven growth assay. CAR T cells bearing the indicated chimeric receptors were thawed and the percentages of CAR+ cells were normalized to the sample with the lowest transduction efficiency (i.e. 20% CAR+) by adding non-transduced T cells. Cells were either left untreated, or treated with 500 ng/ml of AP1903, and in the absence of exogenous cytokines (unless specified in the case of positive controls) or target cells for 2 weeks. […] On Day 5 of the AP1903-driven growth assay, supernatents were sampled for the analysis of cytokine release using the MSD assay (Meso Scale Discovery). At the end of the 2-week culture, the memory and exhaustion phenotypes of surviving CAR T cells were determined. Briefly, duplicate samples from each culture condition cells were harvested and stained using the Zombie NIR Fixable Viability Kit (Biolegend). […]

[4] = test system: U87KO-EGFRvIII-nucRFP target cells; assay: 4-day in vitro cytotoxicity assay against U87KO-EGFRvIII-nucRFP target cells (Example 16B); details: EGFRvIII CAR (2173 scFv); E:T 1:8; 500 ng/ml AP1903; 4 days; FIGS. 40A-40F
Description: as §1

[5] = test system: STAT4; assay: HEK293T transcription factor reporter assay of cytotails (Example 16A), Stat4; details: 1 ug/mL AP1903, 6 hours; FIG. 39B
Description: To test the signaling pathways activated by different cytotails, we utilized a HEK293T cell reporter assay. Briefly, 20,000 HEK293T cells were plated into each well of a poly-L-lysine-coated 96-well flat-bottom plate and allowed to adhere overnight. An inducible cytokine receptor (2.5 ng), the respective transcription factor response element that drives Firefly Luciferase (100 ng; Promega) and a Renilla Luciferase control reporter vector (1 ng; Promega) were mixed in a final volume of 5 uL in Opti-MEM (Gibco) (“DNA mix”). 0.3 uL Lipofectamine 2000 (Invitrogen) in 5 uL Opti-MEM was incubated at room temperature for 5 minutes and then added to the DNA mix. The mixture was incubated at room temperature for 20 minutes and the total volume of 10 uL was added to each well containing HEK-293T. As a negative control, the FKBP ectodomain was coupled to the transmembrane and short intracellular region of TpoR(478-528) that lacked the JAK-binding domain and cytotail (i.e. TpoR CTRL). As a comparison, the FKBP ectodomain was coupled to the MyD88/CD40 signaling domains (henceforth referred to as “FKBP-MyD88-CD40”). 24 hours after transfection, cells were either left untreated, or treated with 1 ug/mL AP1903 (Apex Bio) diluted in serum-free media. 6 hours after AP1903 treatment, reporter activity was determined using the Dual-Glo Luciferase Assay System (Promega). […]

[6] = test system: CAR T cells; assay: AP1903-driven growth assay: enrichment, memory and exhaustion phenotype of CAR T cells (Example 16B); details: 2 weeks; exogenous recombinant cytokine 10 ng/mL; 20% CAR+ seeded; FIG. 43
Description: To test whether different cytotail outputs influenced the memory differentiation and long-term survival of CAR T cells, we performed an AP1903-driven growth assay. CAR T cells bearing the indicated chimeric receptors were thawed and the percentages of CAR+ cells were normalized to the sample with the lowest transduction efficiency (i.e. 20% CAR+) by adding non-transduced T cells. Cells were either left untreated, or treated with 500 ng/ml of AP1903, and in the absence of exogenous cytokines (unless specified in the case of positive controls) or target cells for 2 weeks. As positive controls, CAR T cells were alternatively supplemented with either exogenous recombinant IL-7 or IL-2 (10 ng/mL each; Miltenyi). […] At the end of the 2-week culture, the memory and exhaustion phenotypes of surviving CAR T cells were determined. Briefly, duplicate samples from each culture condition cells were harvested and stained using the Zombie NIR Fixable Viability Kit (Biolegend). […]

AP1903-induced Stat5 reporter activity [1]: abrogates Stat5 activity
Molecule: IL7R(424-459; Y456F): FKBP switch (Example 16) cytotail said to abrogate Stat5 activity, used as comparator (GILTLNPVAQGQPILTSLGSNQEEAYVTMSSFFQNQ; also: FKBP switch fusion; UniProt P16871 424-459, looked up, variant Y456F)

Molecule: IL12Rb2small(775-825): FKBP switch (Example 16) bearing the IL12Rb2small(775-825) cytotail (SDPKPENPACPWTVLPAGDLPTHDGYLPSNIDDLPSHEAPLADSLEELEPQ; also: FKBP switch fusion; UniProt Q99665 775-825, looked up, fragment)
IL-10 secretion ([2]; AP1903, FIG. 41A): increased IL-10 secretion
pro-inflammatory cytokine release in the presence of AP1903 ([2]; IL-17A/F, IL-21, TNFa and IFNg, FIG. 41A): released elevated amounts of pro-inflammatory cytokines
cytokine release on Day 5 of AP1903-driven growth [3]: secrete elevated amounts of pro-inflammatory cytokines
CAR T cell cytotoxicity in the presence of AP1903 [4]: enhances CART cell cytotoxic potency
Stat4 reporter activation [5]: activating Stat4

B1: IL-7: exogenous recombinant IL-7 (Miltenyi), positive control (protein, UniProt P13232 26-177, looked up)
Interleukin-7: DCDIEGKDGKQYESVLMVSIDQLLDSMKEIGSNCLNNEFNFFKRHICDANKEGMFLFRAARKLRQFLKMNSTGDFDLHLLKVSEGTTILLNCTGQVKGRKPAALGEAQPTKSLEENKSLKEQKKLNDLCFLKRLLQEIKTCWNKILMGTKEH
percentage of CAR+ cells [6]: ~20%
